Our source for the EC50 values is patent publication US20260001928A1 (CORTERIA PHARMACEUTICALS, priority 2022, published 2026).

The experiment has as its system human LAD2 cells. In kind it is cell-based. As for the experimental part:
LAD2 cells (20000 cells/well, 96-well plates and 10,000 cells/well in 384-well plates) were incubated with compounds for 30 min. The R-hexosaminidase released into the supernatants and in cell lysates was quantified using the fluorogenic substrate 4-methylumbelliferyl-N-acetyl-b-D-glucosaminide.
On the day of the assay, the lyophilized peptides were dissolved in DMSO and/or PBS 1× pH 7.4, to obtain stock solutions. The stock solutions were used to prepare working serial dilutions to have final concentrations in assay ranging from 50, 100 or 300 to 0.1 or 0.001 μM. Each peptide was tested in biological duplicates. When compounds were dissolved in DMSO, the final solvent concentration in assay was 0.5% (v/v).
The percentage of degranulation, expressed as % of R-hexosaminidase release, was calculated by dividing the fluorescence signal of the supernatant by the sum of the signals from the supernatant and cell pellet (lysed with Triton X-100, final 1%) and multiplying by 100.
Dose-response curves were generated by plotting the % of R-hexosaminidase release versus total release of cells treated with triton (y-axis) against the concentrations of peptides tested (x-axis). The Mast Cell Degranulation (MCD) EC50 values and standard errors were calculated using XLfit 5.5.0.5 based on the following equation:
4 Parameter Sigmoidal Model: f=(A+((B−A)/(1+((C/x)^D))))
where A=Emin, B=Emax, C=EC50 and D=slope

*1 amine or outer side, *2 acyl side, *3 side chain or, on linkers, in order; H or OH if unused. Where a SMILES comes first, the peptide text is derived from it. Side-chain parts run from the residue outwards. [ ]: non-standard residue; d: D form. The star is where a group is joined. C20 diacid = O=C(O)CCCCCCCCCCCCCCCCCCC(=O)*; C16 diacid = O=C(O)CCCCCCCCCCCCCCC(=O)*; γGlu = O=C(O)[C@H](CCC(=O)[*:2])N[*:1]; NMeI = CC[C@H](C)[C@H](NC)C(=O)O; Aib = CC(C)(N)C(=O)O

For the molecule `CC[C@H](C)[C@H](NC(C)=O)C(=O)N[C@H](C(=O)N[C@@H](CC(C)C)C(=O)N[C@@H](CO)C(=O)N[C@@H](CC(C)C)C(=O)N[C@@H](CC(=O)O)C(=O)N[C@@H](C(=O)N1CCC[C@H]1C(=O)N[C@H](C(=O)N[C@@H](CCCCN)C(=O)N[C@@H](CC(C)C)C(=O)N[C@@H](CCCCNC(=O)CC[C@H](NC(=O)CCCCCCCCCCCCCCC(=O)O)C(=O)O)C(=O)N[C@@H](CCCCN)C(=O)N[C@H](C(=O)N[C@@H](CC(C)C)C(=O)N[C@@H](CC(C)C)C(=O)N[C@@H](CCC(=O)O)C(=O)N[C@@H](CCC(N)=O)C(=O)N[C@@H](CCC(=O)O)C(=O)N[C@@H](CCCCN)C(=O)N[C@@H](CCC(N)=O)C(=O)N[C@@H](CCCCN)C(=O)N[C@@H](CCC(=O)O)C(=O)N[C@@H](CCC(N)=O)C(=O)N[C@@H](CCCNC(=N)N)C(=O)N[C@@H](CCC(=O)O)C(=O)N[C@@H](CCC(N)=O)C(=O)N[C@@H](C)C(=O)N[C@@H](CCC(=O)O)C(=O)N[C@H](C(=O)N[C@@H](CC(N)=O)C(=O)NC(C)(C)C(=O)N[C@@H](CCC(N)=O)C(=O)N[C@H](C(=O)N[C@@H](CC(C)C)C(=O)N[C@@H](C)C(=O)N[C@@H](CCC(N)=O)C(=O)N[C@H](C(N)=O)C(C)C)[C@@H](C)CC)[C@@H](C)O)[C@@H](C)CC)[C@@H](C)CC)C(C)C)C(C)C` [Cmpd 168] (Ac-IVLSLD[dV]PIKLK([γGlu-C16 diacid])KILLEQEKQKEQREQAETN[Aib]QILAQV-NH2), the concentration for a half-maximal effect (EC50) is > 300 µM.

In the case of `CC[C@H](C)[C@H](NC(C)=O)C(=O)N[C@H](C(=O)N[C@@H](CC(C)C)C(=O)N[C@@H](CO)C(=O)N[C@@H](CC(C)C)C(=O)N[C@@H](CC(=O)O)C(=O)N[C@@H](C(=O)N1CCC[C@H]1C(=O)N[C@H](C(=O)N[C@@H](CCCCN)C(=O)N[C@@H](CC(C)C)C(=O)N[C@@H](CCCCNC(=O)CC[C@H](NC(=O)CCCCCCCCCCCCCCCCCCC(=O)O)C(=O)O)C(=O)N[C@@H](CCCCN)C(=O)N[C@H](C(=O)N[C@@H](CC(C)C)C(=O)N[C@@H](CC(C)C)C(=O)N[C@@H](CCC(=O)O)C(=O)N[C@@H](CCC(N)=O)C(=O)N[C@@H](CCC(=O)O)C(=O)N[C@@H](CCCCN)C(=O)N[C@@H](CCC(N)=O)C(=O)N[C@@H](CCCCN)C(=O)N[C@@H](C)C(=O)N[C@@H](CCC(N)=O)C(=O)N[C@@H](CCCNC(=N)N)C(=O)N[C@@H](CCC(=O)O)C(=O)N[C@@H](CCC(N)=O)C(=O)N[C@@H](C)C(=O)N[C@@H](CCC(=O)O)C(=O)N[C@H](C(=O)N[C@@H](CC(N)=O)C(=O)NC(C)(C)C(=O)N[C@@H](CCC(N)=O)C(=O)N[C@H](C(=O)N[C@@H](CC(C)C)C(=O)N[C@@H](C)C(=O)N[C@@H](CCC(N)=O)C(=O)N[C@H](C(N)=O)C(C)C)[C@@H](C)CC)[C@@H](C)O)[C@@H](C)CC)[C@@H](C)CC)C(C)C)C(C)C` [Cmpd 212] (Ac-IVLSLD[dV]PIKLK([γGlu-C20 diacid])KILLEQEKQKAQREQAETN[Aib]QILAQV-NH2), the EC50 is > 300 µM.

As to `CC[C@H](C)[C@H](NC(C)=O)C(=O)N[C@H](C(=O)N[C@@H](CC(C)C)C(=O)N[C@@H](CO)C(=O)N[C@@H](CC(C)C)C(=O)N[C@@H](CC(=O)O)C(=O)N[C@@H](C(=O)N1CCC[C@H]1C(=O)N[C@H](C(=O)N[C@@H](CCCCN)C(=O)N[C@@H](CC(C)C)C(=O)N[C@@H](CCCCNC(=O)CC[C@H](NC(=O)CCCCCCCCCCCCCCCCCCC(=O)O)C(=O)O)C(=O)N[C@@H](CCCCN)C(=O)N[C@H](C(=O)N[C@@H](CC(C)C)C(=O)N[C@@H](CC(C)C)C(=O)N[C@@H](CCC(=O)O)C(=O)N[C@@H](CCC(N)=O)C(=O)N[C@@H](CCC(=O)O)C(=O)N[C@@H](CCCCN)C(=O)N[C@@H](CCC(N)=O)C(=O)N[C@@H](CCCCN)C(=O)N[C@@H](CCC(=O)O)C(=O)N[C@@H](CCC(N)=O)C(=O)N[C@@H](CCCNC(=N)N)C(=O)N[C@@H](CCC(=O)O)C(=O)N[C@@H](CCC(N)=O)C(=O)N[C@@H](C)C(=O)N[C@@H](CCC(=O)O)C(=O)N[C@H](C(=O)N[C@@H](CC(N)=O)C(=O)NC(C)(C)C(=O)N[C@@H](CCC(N)=O)C(=O)N[C@H](C(=O)N[C@@H](CC(C)C)C(=O)N[C@@H](C)C(=O)N[C@@H](CCC(N)=O)C(=O)N[C@H](C(N)=O)C(C)C)[C@@H](C)CC)[C@@H](C)O)[C@@H](C)CC)[C@@H](C)CC)C(C)C)C(C)C` [Cmpd 213] (Ac-IVLSLD[dV]PIKLK([γGlu-C20 diacid])KILLEQEKQKEQREQAETN[Aib]QILAQV-NH2), the EC50 was > 300 µM. Consider `CC[C@H](C)[C@H](NC)C(=O)N[C@H](C(=O)N[C@@H](CC(C)C)C(=O)N[C@@H](CO)C(=O)N[C@@H](CC(C)C)C(=O)N[C@@H](CC(=O)O)C(=O)N[C@@H](C(=O)N1CCC[C@H]1C(=O)N[C@H](C(=O)N[C@@H](CCCCN)C(=O)N[C@@H](CC(C)C)C(=O)N[C@@H](CCCCNC(=O)CC[C@H](NC(=O)CCCCCCCCCCCCCCCCCCC(=O)O)C(=O)O)C(=O)N[C@@H](CCCCN)C(=O)N[C@H](C(=O)N[C@@H](CC(C)C)C(=O)N[C@@H](CC(C)C)C(=O)N[C@@H](CCC(=O)O)C(=O)N[C@@H](CCC(N)=O)C(=O)N[C@@H](CCC(=O)O)C(=O)N[C@@H](CCCCN)C(=O)N[C@@H](CCC(N)=O)C(=O)N[C@@H](CCCCN)C(=O)NC(C)(C)C(=O)N[C@@H](CCC(N)=O)C(=O)N[C@@H](CCCNC(=N)N)C(=O)N[C@@H](CCC(=O)O)C(=O)N[C@@H](CCC(N)=O)C(=O)N[C@@H](C)C(=O)N[C@@H](CCC(=O)O)C(=O)N[C@H](C(=O)N[C@@H](CC(N)=O)C(=O)NC(C)(C)C(=O)N[C@@H](CCC(N)=O)C(=O)N[C@H](C(=O)N[C@@H](CC(C)C)C(=O)N[C@@H](C)C(=O)N[C@@H](CCC(N)=O)C(=O)N[C@H](C(N)=O)C(C)C)[C@@H](C)CC)[C@@H](C)O)[C@@H](C)CC)[C@@H](C)CC)C(C)C)C(C)C` [Cmpd 215] (H-[NMeI]VLSLD[dV]PIKLK([γGlu-C20 diacid])KILLEQEKQK[Aib]QREQAETN[Aib]QILAQV-NH2), for which the half-maximal effective concentration (EC50) is > 100 µM. The figure for `CC[C@H](C)[C@H](NC)C(=O)N[C@H](C(=O)N[C@@H](CC(C)C)C(=O)N[C@@H](CO)C(=O)N[C@@H](CC(C)C)C(=O)N[C@@H](CC(=O)O)C(=O)N[C@@H](C(=O)N1CCC[C@H]1C(=O)N[C@H](C(=O)N[C@@H](CCCCN)C(=O)N[C@@H](CC(C)C)C(=O)N[C@@H](CCCCNC(=O)CC[C@H](NC(=O)CCCCCCCCCCCCCCCCCCC(=O)O)C(=O)O)C(=O)N[C@@H](CCCCN)C(=O)N[C@H](C(=O)N[C@@H](CC(C)C)C(=O)N[C@@H](CC(C)C)C(=O)N[C@@H](CCC(=O)O)C(=O)N[C@@H](CCC(N)=O)C(=O)N[C@@H](CCC(=O)O)C(=O)N[C@@H](CCCCN)C(=O)N[C@@H](CCC(N)=O)C(=O)N[C@@H](CCCCN)C(=O)N[C@@H](C)C(=O)N[C@@H](CCC(N)=O)C(=O)N[C@@H](CCCNC(=N)N)C(=O)N[C@@H](CCC(=O)O)C(=O)N[C@@H](CCC(N)=O)C(=O)N[C@@H](C)C(=O)N[C@@H](CCC(=O)O)C(=O)N[C@H](C(=O)N[C@@H](CC(N)=O)C(=O)NC(C)(C)C(=O)N[C@@H](CCC(N)=O)C(=O)N[C@H](C(=O)N[C@@H](CC(C)C)C(=O)N[C@@H](C)C(=O)N[C@@H](CCC(N)=O)C(=O)N[C@H](C(N)=O)C(C)C)[C@@H](C)CC)[C@@H](C)O)[C@@H](C)CC)[C@@H](C)CC)C(C)C)C(C)C` [Cmpd 217] (H-[NMeI]VLSLD[dV]PIKLK([γGlu-C20 diacid])KILLEQEKQKAQREQAETN[Aib]QILAQV-NH2) is > 300 µM; for `CC[C@H](C)[C@H](NC)C(=O)N[C@H](C(=O)N[C@@H](CC(C)C)C(=O)N[C@@H](CO)C(=O)N[C@@H](CC(C)C)C(=O)N[C@@H](CC(=O)O)C(=O)N[C@@H](C(=O)N1CCC[C@H]1C(=O)N[C@H](C(=O)N[C@@H](CCCCN)C(=O)N[C@@H](CC(C)C)C(=O)N[C@@H](CCCCNC(=O)CC[C@H](NC(=O)CCCCCCCCCCCCCCCCCCC(=O)O)C(=O)O)C(=O)N[C@@H](CCCCN)C(=O)N[C@H](C(=O)N[C@@H](CC(C)C)C(=O)N[C@@H](CC(C)C)C(=O)N[C@@H](CCC(=O)O)C(=O)N[C@@H](CCC(N)=O)C(=O)N[C@@H](CCC(=O)O)C(=O)N[C@@H](CCCCN)C(=O)N[C@@H](CCC(N)=O)C(=O)N[C@@H](CCCCN)C(=O)N[C@@H](CCC(=O)O)C(=O)N[C@@H](CCC(N)=O)C(=O)N[C@@H](CCCNC(=N)N)C(=O)N[C@@H](CCC(=O)O)C(=O)N[C@@H](CCC(N)=O)C(=O)N[C@@H](C)C(=O)N[C@@H](CCC(=O)O)C(=O)N[C@H](C(=O)N[C@@H](CC(N)=O)C(=O)NC(C)(C)C(=O)N[C@@H](CCC(N)=O)C(=O)N[C@H](C(=O)N[C@@H](CC(C)C)C(=O)N[C@@H](C)C(=O)N[C@@H](CCC(N)=O)C(=O)N[C@H](C(N)=O)C(C)C)[C@@H](C)CC)[C@@H](C)O)[C@@H](C)CC)[C@@H](C)CC)C(C)C)C(C)C` [Cmpd 218] (H-[NMeI]VLSLD[dV]PIKLK([γGlu-C20 diacid])KILLEQEKQKEQREQAETN[Aib]QILAQV-NH2) it is > 300 µM.
